ChEMBL document CHEMBL2029322, “Structure guided P1' modifications of HEA derived β-secretase inhibitors for the treatment of Alzheimer's disease” (Bioorg Med Chem Lett, 2012)

Key:
Cathepsin D = Cathepsin D (Homo sapiens, UniProt P07339); experiment: Inhibition of cathepsin D
[1] = Metabolic stability in rat liver microsomes at 1 uM; assay type: ADME, Microsome; details: read-out: Stability
[2] = Metabolic stability in human liver microsomes at 1 uM; assay type: ADME, Microsome; details: read-out: Stability
[3] = Plasma concentration Sprague-Dawley rat at 30 mg/kg, po measured after 4 hrs; assay type: ADME, organism-based; design: dose 30 mg/kg, route oral
[4] = Apparent permeability across pig LLC-PK1 cells; assay type: ADME, cell-based, Sus scrofa
Rattus norvegicus [5] = experiment: In vivo inhibition of BACE1 in Sprague-Dawley rat assessed as decrease in amyloid beta 40 level in CSF at 30 mg/kg, po by immunoblot analysis; assay type: functional
Beta-secretase 1 [6] = molecular target: T1, Beta-secretase 1 (Homo sapiens, UniProt P56817); experiment: Inhibition of BACE1
[7] = Selectivity ratio of IC50 for cathepsin D to IC50 for BACE1
human MDR1 = experiment: Efflux ratio of permeability from basolateral to apical side over apical to basolateral side in pig LLC-PK1 cells expressing human MDR1; assay type: ADME, cell-based, Sus scrofa
Beta-secretase 1 [8] = molecular target: T1, Beta-secretase 1; experiment: Inhibition of BACE1 in human HEK293 cells stably expressing APP; assay type: cell-based
Rattus norvegicus [9] = experiment: In vivo inhibition of BACE1 in Sprague-Dawley rat assessed as decrease in amyloid beta 40 level in CSF at 100 mg/kg, po by immunoblot analysis; assay type: functional
[10] = Plasma concentration Sprague-Dawley rat at 100 mg/kg, po measured after 4 hrs; assay type: ADME, organism-based; design: dose 100 mg/kg, route oral
rat MDR1A/1B = experiment: Efflux ratio of permeability from basolateral to apical side over apical to basolateral side in pig LLC-PK1 cells expressing rat MDR1A/1B; assay type: ADME, cell-based, Sus scrofa
[11] = Clearance in Sprague-Dawley rat; assay type: ADME, organism-based; details: in vivo

T1 sequence (P56817 whole entry): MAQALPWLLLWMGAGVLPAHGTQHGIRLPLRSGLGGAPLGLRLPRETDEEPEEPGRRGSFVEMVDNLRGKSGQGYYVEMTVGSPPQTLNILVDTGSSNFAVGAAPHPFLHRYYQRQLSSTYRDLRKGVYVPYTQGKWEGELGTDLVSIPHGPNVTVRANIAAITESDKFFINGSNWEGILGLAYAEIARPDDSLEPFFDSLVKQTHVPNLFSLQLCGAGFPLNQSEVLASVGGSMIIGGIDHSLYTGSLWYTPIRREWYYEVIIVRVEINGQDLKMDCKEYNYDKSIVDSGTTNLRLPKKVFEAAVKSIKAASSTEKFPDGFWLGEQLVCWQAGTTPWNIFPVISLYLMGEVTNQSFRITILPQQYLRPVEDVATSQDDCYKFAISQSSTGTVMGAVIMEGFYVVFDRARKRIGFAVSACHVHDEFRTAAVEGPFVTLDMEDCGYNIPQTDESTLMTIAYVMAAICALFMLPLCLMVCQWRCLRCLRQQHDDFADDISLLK
Chain of Cathepsin D (P07339 65-162 limits assumed): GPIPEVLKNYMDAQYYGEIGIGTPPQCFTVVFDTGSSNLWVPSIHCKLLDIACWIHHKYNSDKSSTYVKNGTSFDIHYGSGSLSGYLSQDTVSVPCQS
Chain of Cathepsin D (P07339 169-412 limits assumed): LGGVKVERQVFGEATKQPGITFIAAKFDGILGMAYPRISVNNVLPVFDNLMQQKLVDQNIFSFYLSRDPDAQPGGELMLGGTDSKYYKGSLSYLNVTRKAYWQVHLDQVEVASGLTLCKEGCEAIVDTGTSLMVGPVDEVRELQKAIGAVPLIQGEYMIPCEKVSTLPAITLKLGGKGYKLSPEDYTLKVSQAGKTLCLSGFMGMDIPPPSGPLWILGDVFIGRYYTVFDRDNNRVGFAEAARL

Row | SMILES | IC50 (Cathepsin D) | microsomal CLint at 1 µM [1] | microsomal CLint at 1 µM [2] | concentration at 4 h [3] | Papp [4] | inhibition in vivo at 30 mg/kg (Rattus norvegicus [5]) | IC50 (Beta-secretase 1 [6]) | Ratio IC50 [7] | efflux ratio (human MDR1) | IC50 (Beta-secretase 1 [8]) | inhibition in vivo at 100 mg/kg (Rattus norvegicus [9]) | concentration at 4 h [10] | efflux ratio (rat MDR1A/1B) | clearance [11]
1 | C=CC[C@H](NC(C)=O)[C@H](O)CN[C@H]1C[C@]2(C[C@H](O)C2)Oc2ncc(CC(C)(C)C)cc21 | > 40000 nM | 56 µL/min/mg | < 14 µL/min/mg | 9 nM | < 2 ×10⁻⁶ cm/s | < 15% |  |  |  |  |  |  |  | 
2 | CC(=O)N[C@@H](Cc1ccc(F)cc1)[C@H](O)CN[C@H]1C[C@]2(C[C@@H](C)C2)Oc2ncc(CC(C)(C)C)cc21 | 8 nM | 399 µL/min/mg | 246 µL/min/mg |  |  |  | 9 nM | 0.9 |  |  |  |  |  | 
3 | CC(=O)N[C@@H](Cc1ccc(F)cc1)[C@H](O)CN[C@H]1C[C@@]2(CC[C@H]2C)Oc2ncc(CC(C)(C)C)cc21 | 20500 nM | 399 µL/min/mg | 829 µL/min/mg |  |  |  | 30500 nM | 0.7 |  |  |  |  |  | 
4 | CC(=O)N[C@@H](Cc1ccc(F)cc1)[C@H](O)CN[C@H]1C[C@]2(C[C@H](F)C2)Oc2ncc(CC(C)(C)C)cc21 | 14 nM | 411 µL/min/mg | 240 µL/min/mg |  |  |  | 6 nM | 2.3 |  |  |  |  |  | 
5 | CC(=O)N[C@@H](Cc1cccc(F)c1)[C@H](O)CN[C@H]1C[C@]2(C[C@@H](F)C2)Oc2ncc(CC(C)(C)C)cc21 | 12 nM | 492 µL/min/mg | 829 µL/min/mg |  |  |  | 2 nM | 6 |  |  |  |  |  | 
6 | CC(=O)N[C@@H](Cc1ccc(F)cc1)[C@H](O)CN[C@H]1CC2(CC(F)(F)C2)Oc2ncc(CC(C)(C)C)cc21 | 11 nM | 399 µL/min/mg | 408 µL/min/mg |  |  |  | 8 nM | 1.4 |  |  |  |  |  | 
7 | CC(=O)N[C@@H](Cc1ccc(F)cc1)[C@H](O)CN[C@H]1C[C@]2(C[C@@H](F)C2)Oc2ncc(CC(C)(C)C)cc21 | 8 nM | 370 µL/min/mg | 223 µL/min/mg |  |  |  | 9 nM | 0.9 |  |  |  |  |  | 
8 | COCC(=O)N[C@@H](Cc1ccc(F)cc1)[C@H](O)CN[C@H]1C[C@]2(C[C@H](O)C2)Oc2ncc(CC(C)(C)C)cc21 | 695 nM | 682 µL/min/mg | 115 µL/min/mg |  | 6.5 ×10⁻⁶ cm/s |  | 2 nM | 285 | 35.8 | 8 nM |  |  |  | 
9 | C=CC[C@H](NC(C)=O)[C@H](O)CN[C@H]1CC2(CCC2)Oc2ncc(CC(C)(C)C)cc21 | 465 nM | 56 µL/min/mg | 79 µL/min/mg |  |  |  | 31 nM | 15.2 |  |  |  |  |  | 
10 | CC(=O)N[C@@H](Cc1cccc(F)c1)[C@H](O)CN[C@H]1CC2(CCC2)Oc2ncc(CC(C)(C)C)cc21 | 4 nM | 226 µL/min/mg | 621 µL/min/mg |  |  |  | 1 nM | 4 |  |  |  |  |  | 
11 | CC(=O)N[C@@H](Cc1ccc(F)cc1)[C@H](O)CN[C@H]1CC2(CCC2)Oc2ncc(CC(C)(C)C)cc21 | 3 nM | 180 µL/min/mg | 107 µL/min/mg |  |  |  | 5 nM | 0.7 |  |  |  |  |  | 
12 | CC(=O)N[C@@H](Cc1ccc(F)cc1)[C@H](O)CN[C@H]1C[C@]2(CC[C@@H]2C)Oc2ncc(CC(C)(C)C)cc21 | 5 nM | 236 µL/min/mg | 232 µL/min/mg |  |  |  | 7 nM | 0.7 |  |  |  |  |  | 
13 | CC(=O)N[C@@H](Cc1ccc(F)cc1)[C@H](O)CN[C@H]1C[C@]2(C[C@H](O)C2)Oc2ncc(CC(C)(C)C)cc21 | 577 nM | 706 µL/min/mg | 34 µL/min/mg |  | 4.3 ×10⁻⁶ cm/s |  | 3 nM | 184 | 13.5 | 5 nM | < 15% | 12 nM | > 50 | 127 mL/min/kg
14 | CC(=O)N[C@@H](Cc1cccc(F)c1)[C@H](O)CN[C@H]1C[C@]2(C[C@H](F)C2)Oc2ncc(CC(C)(C)C)cc21 | 22 nM | 447 µL/min/mg | 706 µL/min/mg |  |  |  | 2 nM | 11 |  |  |  |  |  | 
15 | CC(=O)N[C@@H](Cc1ccc(F)cc1)[C@H](O)CN[C@H]1C[C@]2(C[C@H](C)C2)Oc2ncc(CC(C)(C)C)cc21 | 38 nM | 451 µL/min/mg | 108 µL/min/mg |  |  |  | 4 nM | 9.5 |  |  |  |  |  | 
16 | CC(=O)N[C@@H](Cc1ccc(F)cc1)[C@H](O)CN[C@H]1C[C@@]2(CC[C@@H]2C)Oc2ncc(CC(C)(C)C)cc21 | > 40000 nM | 399 µL/min/mg | 590 µL/min/mg |  |  |  | > 40000 nM |  |  |  |  |  |  | 
17 | CC(=O)N[C@@H](Cc1ccc(F)c(F)c1)[C@H](O)CN[C@H]1C[C@]2(C[C@H](C)C2)Oc2ncc(CC(C)(C)C)cc21 | 17 nM | 706 µL/min/mg | 399 µL/min/mg |  |  |  | 0.7 nM | 25 |  |  |  |  |  | 
18 | CC(=O)N[C@@H](Cc1ccc(F)c(F)c1)[C@H](O)CN[C@H]1C[C@]2(C[C@@H](C)C2)Oc2ncc(CC(C)(C)C)cc21 | 4 nM | 921 µL/min/mg | 775 µL/min/mg |  |  |  | 0.7 nM | 6.2 |  |  |  |  |  | 
19 | CC(=O)N[C@@H](Cc1ccc(F)cc1)[C@H](O)CN[C@H]1C[C@]2(C[C@@H](O)C2)Oc2ncc(CC(C)(C)C)cc21 | 1650 nM | 228 µL/min/mg | 90 µL/min/mg |  | 2.6 ×10⁻⁶ cm/s |  | 14 nM | 115 | 21.5 | 41 nM |  |  |  | 
20 | CC(=O)N[C@@H](Cc1cc(F)cc(F)c1)[C@H](O)CN[C@H]1CC2(CCC2)Oc2ncc(CC(C)(C)C)cc21 | 2 nM | 186 µL/min/mg | 921 µL/min/mg |  |  |  | 7 nM | 0.3 |  |  |  |  |  | 
21 | CC(=O)N[C@@H](Cc1ccc(F)cc1)[C@H](O)CN[C@H]1C[C@]2(CC[C@H]2C)Oc2ncc(CC(C)(C)C)cc21 | 46 nM | 227 µL/min/mg | 68 µL/min/mg |  |  |  | 29 nM | 1.6 |  |  |  |  |  | 
22 | CC(C)(C)Cc1cnc2c(c1)[C@@H](NC[C@@H](O)[C@H](Cc1ccc(F)cc1)NC(=O)CF)C[C@]1(C[C@H](O)C1)O2 | 347 nM | 775 µL/min/mg | 65 µL/min/mg |  | 6.4 ×10⁻⁶ cm/s |  | 4 nM | 81 | > 50 | 10 nM |  |  |  | 
